According to ChEMBL document CHEMBL4680090 (J Med Chem, 2016):
≈ marks a conversion by molar mass, not a printed value.

Legend:
[1] = molecular target: T1, Aldehyde oxidase (Homo sapiens, UniProt Q06278); test: Drug metabolism in human liver S9 fractions assessed as AO-mediated oxidation at fluoro-pyrrolopyridine motif at 10 uM incubated for 60 mins in absence of CYP cofactor NADP by HPLC-UV chromatography; type: ADME, subcellular; details: s9, 1 h
T1 sequence (Q06278 whole entry): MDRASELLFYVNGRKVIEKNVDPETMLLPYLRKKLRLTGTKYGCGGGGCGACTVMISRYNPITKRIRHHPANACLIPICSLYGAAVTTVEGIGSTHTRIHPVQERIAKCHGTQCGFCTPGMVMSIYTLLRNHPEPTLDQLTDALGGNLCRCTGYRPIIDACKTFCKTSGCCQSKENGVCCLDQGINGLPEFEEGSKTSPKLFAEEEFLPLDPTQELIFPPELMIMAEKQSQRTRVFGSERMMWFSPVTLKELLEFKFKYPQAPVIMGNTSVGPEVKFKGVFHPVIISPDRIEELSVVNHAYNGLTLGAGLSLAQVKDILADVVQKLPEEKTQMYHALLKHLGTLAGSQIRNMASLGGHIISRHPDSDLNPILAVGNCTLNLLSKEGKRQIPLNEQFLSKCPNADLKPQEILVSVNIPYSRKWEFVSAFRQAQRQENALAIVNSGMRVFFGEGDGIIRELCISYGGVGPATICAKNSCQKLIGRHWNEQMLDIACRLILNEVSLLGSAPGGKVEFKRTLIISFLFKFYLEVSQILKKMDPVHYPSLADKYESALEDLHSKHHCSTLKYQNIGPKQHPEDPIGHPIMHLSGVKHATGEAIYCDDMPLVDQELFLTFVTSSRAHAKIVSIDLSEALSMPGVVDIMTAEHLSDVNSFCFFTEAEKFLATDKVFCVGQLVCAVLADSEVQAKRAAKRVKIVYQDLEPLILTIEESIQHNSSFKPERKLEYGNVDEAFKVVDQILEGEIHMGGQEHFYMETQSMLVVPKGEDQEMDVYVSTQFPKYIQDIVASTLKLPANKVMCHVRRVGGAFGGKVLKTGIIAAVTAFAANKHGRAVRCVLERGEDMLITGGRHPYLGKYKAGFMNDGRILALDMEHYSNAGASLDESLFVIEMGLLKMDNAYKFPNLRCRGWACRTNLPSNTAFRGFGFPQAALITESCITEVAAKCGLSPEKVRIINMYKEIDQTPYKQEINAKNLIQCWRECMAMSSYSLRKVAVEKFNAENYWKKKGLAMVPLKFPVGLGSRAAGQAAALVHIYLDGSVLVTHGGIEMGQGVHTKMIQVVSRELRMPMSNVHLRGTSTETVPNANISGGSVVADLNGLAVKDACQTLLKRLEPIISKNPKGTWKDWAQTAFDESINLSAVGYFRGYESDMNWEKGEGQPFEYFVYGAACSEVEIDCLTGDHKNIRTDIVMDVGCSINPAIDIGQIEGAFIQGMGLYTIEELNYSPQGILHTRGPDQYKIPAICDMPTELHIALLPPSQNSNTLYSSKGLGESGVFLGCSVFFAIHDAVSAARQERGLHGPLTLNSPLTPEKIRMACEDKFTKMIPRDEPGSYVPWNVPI

[2] = molecular target: T1, Aldehyde oxidase; test: Drug metabolism in human liver S9 fractions assessed as AO-mediated mono-oxidised metabolite formation at 10 uM incubated for 60 mins in absence of CYP cofactor NADP and in presence of 50 uM XO inhibitor allopurinol by HPLC-UV chromatography; type: ADME, subcellular; details: s9, 1 h
[3] = molecular target: T1, Aldehyde oxidase; test: Drug metabolism in human liver S9 fractions assessed as AO-mediated mono-oxidised metabolite formation at 10 uM incubated for 60 mins in absence of CYP cofactor NADP by HPLC-UV chromatography; type: ADME, subcellular; details: s9, 1 h
[4] = molecular target: T1, Aldehyde oxidase; test: Drug metabolism in human liver S9 fractions assessed as AO-mediated mono-oxidised metabolite formation at 10 uM incubated for 60 mins in absence of CYP cofactor NADP and in presence of 50 uM AO inhibitor menadione by HPLC-UV chromatography; type: ADME, subcellular; details: s9, 1 h
[5] = Clearance in rat at 1 mg/kg, iv relative to hepatic blood flow; type: ADME, organism-based; details: in vivo
[6] = molecular target: T1, Aldehyde oxidase; test: Drug metabolism in human liver S9 fractions assessed as AO-mediated oxidation on central pyridine substituent at 10 uM incubated for 60 mins in absence of CYP cofactor NADP by HPLC-UV chromatography; type: ADME, subcellular; details: s9, 1 h
[7] = Volume of distribution in rat at 1 mg/kg, iv; type: ADME, organism-based; details: in vivo, read-out: Vdss
[8] = in vivo; details: rat, brain and plasma, po, 100 mg/kg
[9] = molecular target: BDNF/NT-3 growth factors receptor (Homo sapiens, UniProt Q16620)
[10] = physchem; details: buffer, pH 6.5
[11] = molecular target: T2, Voltage-gated inwardly rectifying potassium channel KCNH2 (Homo sapiens, UniProt Q12809)
[12] = physchem; details: octanol/water, pH 7.4
[13] = Clearance in rat at 1 mg/kg, iv; type: ADME, organism-based; details: in vivo
[14] = Half life in rat at 1 mg/kg, iv; type: ADME, organism-based; details: in vivo
[15] = human, hepatocytes, 4 h, 1 µM
[16] = tested on: human BCRP; test: in vitro; details: dog
[17] = molecular target: T2, Voltage-gated inwardly rectifying potassium channel KCNH2; remark: listed apart in the source
[18] = in vitro; details: human, liver microsomes
[19] = molecular target: T1, Aldehyde oxidase; test: Drug metabolism in human liver S9 fractions assessed as AO-mediated oxidation on pyrrolopyrimidine-hinge binding group at 10 uM incubated for 60 mins in absence of CYP cofactor NADP by HPLC-UV chromatography; type: ADME, subcellular; details: s9, 1 h
[20] = molecular target: High affinity nerve growth factor receptor (Homo sapiens, UniProt P04629)
[21] = Oral bioavailability in rat at 3 mg/kg; type: ADME, organism-based; details: in vivo
[22] = Toxicity in rat assessed as drug tolerability at 400 mg/kg/day during 7 day toxicological study; type: organism-based; details: in vivo, 168 h
[23] = tested on: MDR1 (P-gp); test: in vitro; details: dog, MDCK-MDR1
[24] = molecular target: T1, Aldehyde oxidase; test: Drug metabolism in human liver S9 fractions assessed as AO-mediated oxidation at 2-aminopyrimidyl ring at 10 uM incubated for 60 mins in absence of CYP cofactor NADP by HPLC-UV chromatography; type: ADME, subcellular; details: s9, 1 h
[25] = tested on: human BCRP; test: in vitro; details: dog; remark: listed apart in the source
[26] = molecular target: T1, Aldehyde oxidase; test: Drug metabolism in human liver S9 fractions assessed as AO-mediated amide hydrolysis at 10 uM incubated for 60 mins in absence of CYP cofactor NADP by HPLC-UV chromatography; type: ADME, subcellular; details: s9, 1 h
[27] = molecular target: T1, Aldehyde oxidase; test: Drug metabolism in human liver S9 fractions assessed as AO-mediated oxidation on pyrrolopyrimidine-hinge binding group and the central pyridine substituent at 10 uM incubated for 60 mins in absence of CYP cofactor NADP by HPLC-UV chromatography; type: ADME, subcellular; details: s9, 1 h
[28] = molecular target: T1, Aldehyde oxidase; test: Drug metabolism in human liver S9 fractions assessed as AO-mediated oxidation on amino-pyrrolopyrimidine hinge binding group and central pyridine substituent at 10 uM incubated for 60 mins in absence of CYP cofactor NADP by HPLC-UV chromatography; type: ADME, subcellular; details: s9, 1 h

T2 sequence (Q12809 whole entry): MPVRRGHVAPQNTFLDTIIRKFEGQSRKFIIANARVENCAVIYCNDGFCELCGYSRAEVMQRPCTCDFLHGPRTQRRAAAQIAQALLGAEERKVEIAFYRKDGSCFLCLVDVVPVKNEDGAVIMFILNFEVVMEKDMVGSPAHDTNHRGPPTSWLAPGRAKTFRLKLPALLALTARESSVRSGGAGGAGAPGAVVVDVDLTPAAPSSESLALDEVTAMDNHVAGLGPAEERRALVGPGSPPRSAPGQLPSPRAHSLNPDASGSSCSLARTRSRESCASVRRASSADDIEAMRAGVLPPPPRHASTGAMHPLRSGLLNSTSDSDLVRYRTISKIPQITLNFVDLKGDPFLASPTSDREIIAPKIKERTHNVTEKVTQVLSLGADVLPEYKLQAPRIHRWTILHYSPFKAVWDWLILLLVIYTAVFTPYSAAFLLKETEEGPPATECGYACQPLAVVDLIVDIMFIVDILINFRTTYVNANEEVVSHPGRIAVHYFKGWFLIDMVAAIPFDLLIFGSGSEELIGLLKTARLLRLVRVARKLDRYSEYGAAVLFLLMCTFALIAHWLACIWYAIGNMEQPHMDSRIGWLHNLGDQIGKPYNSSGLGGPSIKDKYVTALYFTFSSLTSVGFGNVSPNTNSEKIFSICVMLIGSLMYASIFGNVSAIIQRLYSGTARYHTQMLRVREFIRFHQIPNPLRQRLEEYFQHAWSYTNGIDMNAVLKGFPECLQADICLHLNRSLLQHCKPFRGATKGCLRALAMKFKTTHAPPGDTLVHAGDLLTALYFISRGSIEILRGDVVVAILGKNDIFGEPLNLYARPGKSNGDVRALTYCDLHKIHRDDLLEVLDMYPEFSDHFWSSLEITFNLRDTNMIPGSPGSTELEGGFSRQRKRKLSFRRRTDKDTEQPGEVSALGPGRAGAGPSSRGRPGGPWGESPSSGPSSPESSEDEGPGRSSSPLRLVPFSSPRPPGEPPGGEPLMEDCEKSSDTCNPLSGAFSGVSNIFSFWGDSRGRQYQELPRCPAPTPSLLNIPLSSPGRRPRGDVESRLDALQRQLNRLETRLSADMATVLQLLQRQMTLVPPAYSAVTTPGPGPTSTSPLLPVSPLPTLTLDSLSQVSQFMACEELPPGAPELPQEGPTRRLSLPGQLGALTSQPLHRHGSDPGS
Chain of BDNF/NT-3 growth factors receptor (Q16620 whole entry): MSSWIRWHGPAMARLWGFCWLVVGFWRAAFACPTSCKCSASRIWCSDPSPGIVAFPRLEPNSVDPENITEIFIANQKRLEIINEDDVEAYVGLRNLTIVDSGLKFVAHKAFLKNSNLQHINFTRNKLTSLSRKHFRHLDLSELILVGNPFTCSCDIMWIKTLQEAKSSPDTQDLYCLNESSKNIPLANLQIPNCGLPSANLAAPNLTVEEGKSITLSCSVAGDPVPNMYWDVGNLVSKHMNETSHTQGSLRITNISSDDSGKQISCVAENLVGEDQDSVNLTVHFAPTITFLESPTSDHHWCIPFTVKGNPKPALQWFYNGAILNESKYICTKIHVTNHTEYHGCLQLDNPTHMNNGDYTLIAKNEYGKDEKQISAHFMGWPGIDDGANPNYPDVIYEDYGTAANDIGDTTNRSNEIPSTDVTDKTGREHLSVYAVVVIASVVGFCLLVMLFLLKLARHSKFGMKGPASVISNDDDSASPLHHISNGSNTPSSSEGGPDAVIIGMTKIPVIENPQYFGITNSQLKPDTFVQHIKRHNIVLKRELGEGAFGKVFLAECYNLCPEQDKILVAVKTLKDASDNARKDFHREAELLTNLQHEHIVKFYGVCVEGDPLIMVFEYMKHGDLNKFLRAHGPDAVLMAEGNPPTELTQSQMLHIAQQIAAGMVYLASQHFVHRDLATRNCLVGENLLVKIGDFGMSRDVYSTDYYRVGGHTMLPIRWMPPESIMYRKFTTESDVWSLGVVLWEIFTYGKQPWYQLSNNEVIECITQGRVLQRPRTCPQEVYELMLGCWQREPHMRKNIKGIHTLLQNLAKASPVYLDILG
Chain of High affinity nerve growth factor receptor (P04629 whole entry): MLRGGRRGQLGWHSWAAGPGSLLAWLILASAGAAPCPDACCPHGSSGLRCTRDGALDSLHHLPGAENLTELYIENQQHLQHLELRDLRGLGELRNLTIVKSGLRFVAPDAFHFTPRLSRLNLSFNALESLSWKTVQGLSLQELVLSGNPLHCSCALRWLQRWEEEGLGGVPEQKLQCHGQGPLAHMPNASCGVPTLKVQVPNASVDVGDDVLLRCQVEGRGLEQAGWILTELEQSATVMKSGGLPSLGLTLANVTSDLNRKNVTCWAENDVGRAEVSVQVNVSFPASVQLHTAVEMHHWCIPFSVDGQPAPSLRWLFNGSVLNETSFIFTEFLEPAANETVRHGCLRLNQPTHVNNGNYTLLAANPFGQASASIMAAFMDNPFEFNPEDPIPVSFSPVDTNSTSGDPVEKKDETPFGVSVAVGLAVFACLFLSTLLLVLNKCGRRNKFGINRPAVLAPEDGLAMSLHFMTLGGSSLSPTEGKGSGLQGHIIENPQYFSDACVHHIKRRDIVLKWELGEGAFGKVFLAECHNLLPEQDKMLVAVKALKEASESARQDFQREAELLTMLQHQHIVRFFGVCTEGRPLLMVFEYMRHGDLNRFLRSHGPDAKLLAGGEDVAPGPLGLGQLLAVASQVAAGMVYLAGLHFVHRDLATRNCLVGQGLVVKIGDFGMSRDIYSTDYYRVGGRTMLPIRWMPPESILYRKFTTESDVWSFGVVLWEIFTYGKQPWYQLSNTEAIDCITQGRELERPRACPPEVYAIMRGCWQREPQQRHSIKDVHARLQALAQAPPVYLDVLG

## CC(C)n1cc(C(=O)c2cc(NC(=O)Cc3ccc(Cl)cc3)ccn2)c2cncc(F)c21
[1]
  Drug metabolism: Metabolite_Notdetected

## C[C@H](CO)n1cc(C(=O)c2ccnc(NC(=O)Cc3ccc(C#N)cc3)c2)c2cncnc21
[2]
  Drug metabolism: Metabolite_Detected
[3]
  Drug metabolism: Metabolite_Detected
[4]
  Drug metabolism: Metabolite_Notdetected

## CC(C)n1cc(C(=O)c2cncc(NC(=O)Cn3ccc(C(F)(F)F)n3)c2)c2cnccc21
[5]
  CL: 70%
[6]
  Drug metabolism: Metabolite_Detected
[7]
  Vd: 1.5 L/kg
[8]
  Kp uu at 3 h: 0.0083
[9]
  IC50: 0.007 µM
[10]
  solubility: 7.5 µM (≈ 3.42 µg/mL)
[11]
  Ki: 1.4 µM
[12]
  logD: 3
[13]
  clearance: 50 mL/min/kg
[14]
  half-life: 2.3 h
[15]
  CLH(app): 12 µL/min
[16]
  Papp A→B: 11.3 ×10⁻⁶ cm/s
[17]
  IC50: 1.6 µM
[18]
  microsomal CLint at 1 h, 1 µM: < 8 µL/min/mg
[19]
  Drug metabolism: Metabolite_Notdetected
[20]
  IC50: 0.013 µM
[21]
  bioavailability: 16%
[22]
  Activity: Non-Toxic

## CC(C)(CO)n1cc(C(=O)c2cncc(NC(=O)Cc3ccc(Cl)cc3)c2)c2cnc(N)nc21
[10]
  solubility: 29 µM (≈ 13.9 µg/mL)
[11]
  Ki: > 4.3 µM
[12]
  logD: 3.7
[15]
  CLH(app): 11.2 µL/min
[16]
  Papp A→B: 6.4 ×10⁻⁶ cm/s
[18]
  microsomal CLint at 1 h, 1 µM: < 8 µL/min/mg

## CC(C)n1cc(C(=O)c2cncc(NC(=O)Cn3ccc(C4CC4)n3)c2)c2cnccc21
[23]
  efflux ratio: 12.5
[9]
  IC50: 0.005 µM
[11]
  Ki: 1.4 µM
[12]
  logD: 2.7
[15]
  CLH(app): 23 µL/min
[16]
  Papp A→B: 19.8 ×10⁻⁶ cm/s
[18]
  microsomal CLint at 1 h, 1 µM: 35 µL/min/mg
[20]
  IC50: 0.017 µM

## CC(C)n1cc(C(=O)c2cncc(NC(=O)Cc3ccc(Cl)cc3)c2)c2cnc(N)nc21
[24]
  Drug metabolism: Metabolite_Notdetected
[9]
  IC50: 0.002 µM
[10]
  solubility: 12 µM (≈ 5.39 µg/mL)
[11]
  Ki: 16.9 µM
[12]
  logD: 4.2
[15]
  CLH(app): 14 µL/min
[16]
  Papp A→B: 5.2 ×10⁻⁶ cm/s
[18]
  microsomal CLint at 1 h, 1 µM: < 8 µL/min/mg
[20]
  IC50: 0.006 µM

## CC(C)n1cc(C(=O)c2cncc(NC(=O)Cc3ccc(Cl)cc3)c2)c2cncnc21
[9]
  IC50: 0.004 µM
[10]
  solubility: 17.5 µM (≈ 7.59 µg/mL)
[11]
  Ki: 5.2 µM
[12]
  logD: 3.7
[15]
  CLH(app): 37 µL/min
[16]
  Papp A→B: 9.9 ×10⁻⁶ cm/s
[18]
  microsomal CLint at 1 h, 1 µM: 22 µL/min/mg
[20]
  IC50: 0.012 µM

## CC(C)n1cc(C(=O)c2cncc(NC(=O)Cn3ccc(C4CC4)n3)c2)c2cncnc21
[23]
  efflux ratio: 5.8
[9]
  IC50: 0.004 µM
[11]
  Ki: 11.9 µM
[12]
  logD: 2.5
[15]
  CLH(app): 12 µL/min
[16]
  Papp A→B: 18.4 ×10⁻⁶ cm/s
[18]
  microsomal CLint at 1 h, 1 µM: 25 µL/min/mg
[25]
  efflux ratio: 38
[20]
  IC50: 0.018 µM

## CC(C)n1cc(C(=O)c2cncc(NC(=O)Cn3ccc(C4CC4)n3)c2)c2cnc(N)nc21
[24]
  Drug metabolism: Metabolite_Notdetected
[9]
  IC50: 0.005 µM
[10]
  solubility: 30 µM (≈ 13.3 µg/mL)
[11]
  Ki: 38.9 µM
[12]
  logD: 2.5
[15]
  CLH(app): 24 µL/min
[16]
  Papp A→B: 15.8 ×10⁻⁶ cm/s
[18]
  microsomal CLint at 1 h, 1 µM: 8 µL/min/mg
[20]
  IC50: 0.008 µM

## CC(C)n1cc(C(=O)c2cncc(NC(=O)Cn3ccc(C4CC4)n3)c2)c2cncc(F)c21
[23]
  efflux ratio: 3.8
[9]
  IC50: 0.007 µM
[11]
  Ki: 11.3 µM
[12]
  logD: 3.5
[16]
  Papp A→B: 15.4 ×10⁻⁶ cm/s
[18]
  microsomal CLint at 1 h, 1 µM: 37 µL/min/mg
[20]
  IC50: 0.033 µM

## CC(C)n1cc(C(=O)c2cncc(NC(=O)Cc3ccc(C#N)cc3)c2)c2c(N)ncnc21
[26]
  Drug metabolism: Metabolite_Detected
[23]
  efflux ratio: 27
[27]
  Drug metabolism: Metabolite_Detected
[28]
  Drug metabolism: Metabolite_Detected
[8]
  Kp uu at 3 h: 0.013
[9]
  IC50: 0.008 µM
[10]
  solubility: 4.4 µM (≈ 1.93 µg/mL)
[11]
  Ki: 9.7 µM
[12]
  logD: 2.5
[15]
  CLH(app): 7 µL/min
[16]
  Papp A→B: 12.1 ×10⁻⁶ cm/s
[18]
  microsomal CLint at 1 h, 1 µM: 22 µL/min/mg
[20]
  IC50: 0.073 µM

## CC(C)n1cc(C(=O)c2ccnc(NC(=O)Cc3ccc(F)cc3F)c2)c2c(N)ncnc21
[23]
  efflux ratio: 10.9
[10]
  solubility: 13.6 µM (≈ 6.13 µg/mL)
[11]
  Ki: 8.3 µM
[12]
  logD: 4.3
[16]
  Papp A→B: 24.1 ×10⁻⁶ cm/s
[18]
  microsomal CLint at 1 h, 1 µM: 23 µL/min/mg
[25]
  efflux ratio: 10.9
[20]
  IC50: 0.003 µM
